Data as given in patent US5187195A, “Anthraquinone derivatives and preparation thereof” (Fujisawa Pharmaceutical Co., Ltd., priority 1989, dated 1993).
Each block holds one compound with its values, some of them ahead of it.

Key:
[1] = molecular target: T1, crude receptor membrane fractions of porcine aorta (^125 I-endothelin binding) (Sus scrofa, UniProt Q29010); assay: Radioligand binding assay (^125 I-Endothelin binding to porcine aorta membrane fractions); conditions: for IC50: concentration required to compete with ^125 I-endothelin (1.67×10^-11 M) for binding to porcine aorta membrane fractions by 50%, 60 minutes, room temperature, pH 7.5
T1 construct: tissue Pel-Freez Biologicals (U.S.A.); host or cells: porcine aorta, crude membrane fractions
T1 sequence (Q29010 21-427): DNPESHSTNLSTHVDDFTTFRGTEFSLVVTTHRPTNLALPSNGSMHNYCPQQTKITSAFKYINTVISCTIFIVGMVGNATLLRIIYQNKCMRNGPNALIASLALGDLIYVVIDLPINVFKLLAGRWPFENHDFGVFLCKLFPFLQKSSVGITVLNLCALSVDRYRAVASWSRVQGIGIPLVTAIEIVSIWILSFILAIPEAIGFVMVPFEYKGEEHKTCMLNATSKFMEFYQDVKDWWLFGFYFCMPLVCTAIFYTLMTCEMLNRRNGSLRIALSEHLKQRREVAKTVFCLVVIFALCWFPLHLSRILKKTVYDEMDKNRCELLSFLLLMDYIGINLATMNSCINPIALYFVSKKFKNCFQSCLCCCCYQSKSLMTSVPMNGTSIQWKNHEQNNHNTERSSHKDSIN
Procedure: Radioligand Binding Assay
(a) Preparation of crude receptor membrane fractions
Porcine aorta was purchased from Pel-Freez Biologicals (U.S.A.) and stored at -80° C. until use.
Porcine aorta (50 g) was thawed and dissected free from fatty tissue, minced with scissors and then homogenized with a polytron (Brinkmann PT-20, maximal speed for 3×10 sec) in 100 ml buffer (0.25 M sucrose, 10 mM Tris-HCl, 0.1 mM EDTA, pH 7.5).
The homogenate was centrifuged at 10,000 g for 20 minutes at 4° C.
The supernatant, containing the plasma membrane fraction, was centrifuged at 100,000 g for 60 minutes at 4° C., and then resultant pellets were referred to as crude membrane fractions.
The pellets were resuspended in 25 ml of binding assay buffer (50 mM Tris-HCl, 100 mM NaCl, 5 mM MgCl2, 1.5 μg/ml phenylmethylsulfonyl fluoride (PMSF), 120 μg/ml bacitracin, 12 μg/ml leupepcin, 6 μg/ml chymostain, 0.1% bovine serum albumin (BSA), pH 7.5)
The aorta membrane fractions were stored at -80° C. until use.
(b) ^125 I-Endothelin Binding Assay
^125 I-Endothelin (1.67×10^-11 M) (Amersham Japan, specific activity: 2000 Ci/m mol) was incubated with 50 μl of the aorta membrane fractions in binding assay buffer at room temperature (20°-22° C.) for 60 minutes in a final volume of 250 μl.
After incubation, the incubation mixture were filtered through Glass-fiber GF/C filter (pretreated with 0.1% polyethylene imine for 3 hours prior to use) using cell harvester (Brandel M-245). The filters were then washed ten times with a total of 3 ml of the washing buffer (50 mM Tris-HCl, pH 7.5) at 0° C. The filters were counted in a gamma counter (Packard Auto Gamma Model 5650).
The activity of test compounds was expressed as IC50 value, i.e. concentration required to compete with ^125 I-endothelin for binding to prorcine aorta membrane fractions by 50%.

[2] = Solubility; assay type: physicochemical
[3] = system: contraction response of rabbit thoracic aorta induced by endothelin; assay: Effect on rabbit aorta contraction response of endothelin (isolated strips); parameters: species or system rabbit (male albino); conditions: Oryctolagus cuniculus, endothelin 3.2×10^-9 M, % inhibition of maximum contraction, compound added after full contraction; for inhibition at 100 µM: 1 × 10^-4 M; for inhibition at 10 µM: 1 × 10^-5 M
Procedure: Effect of FR901366 Substance and FR901367 Substance on Rabbit Aorta of Contraction Response of Endothelin
Thoracic aorta were isolated from freshly killed male albino rabbits (11 weeks old) and cut into 25 mm strips with the intima denuded. After removing fatty tissues, these arterial segments (2 mm width and 25 mm length) were suspended in 25 ml organ chambers filled with Krebs-Ringer solution (113 mM NaCl, 4.8 mM KCl, 2.2 mM CaCl2, 1.2 mM MgCl2, 25 mM NaHCO3, 1.2 mM KH2 PO4, 5.5 mM glucose) maintained at 37° C. and gassed with 95% O2 /5% CO2.
A preload of 1 g was applied after the aorta had been conditioned by application of increasing concentration of KCl. Contractions were measured as an increase in isometric tension.
The test compound was tested against contraction response of endothelin (3.2×10^-9 M). Synthetic endothelin was obtained from Peptide Institute Inc. (Osaka, Japan). The test compound substance was added after the full contraction response induced endothelin.
The activity of the test compounds is expressed as the percentage inhibition of maximum contraction response induced by endothelin and shown in Table 7.

[4] = system: endothelin induced pressor response; assay: In vivo pressor effect in conscious rats (inhibition of endothelin induced pressor response); parameters: species or system rat (male Wister); conditions: 10 mg/kg i.v., 3 minutes before endothelin 2.4 μg/kg i.v., three rats
Procedure: Assay of In Vivo Pressor Effect in Conscious Rats
Male Wister rats (10 weeks old) were used. The mean arterial blood pressure was recorded from femoral artery via polyethylene catheter connected to the pressure transducer which was coupled to a Biophysiograph 180 system (Nihondenki-San-Ei Instrument Co., Ltd.).
FR901366 substance and endothelin were dissolved in saline and injected in bolus (0.2 ml) through polyethylene cateter inserted via femoral vein.
FR901366 substance was administered 3 minutes before the injection of endothelin. Inhibitory activity of FR90136 substance (10 mg/kg, i. v.) against endothelin (2.4 μg/kg, i. v.) induced pressor response was evaluated with a group of three rats and shown in Table 8.

IC50 [1]: 2.73 µM
Compound: COC(=O)C(CSC12C(=O)c3c(O)cccc3C(=O)C1(O)C1(O)C(=O)C=C(C)CC1(O)CC2O)NC(C)=O (centres unmarked) [FR129795]

IC50 [1]: 13.5 µM
Compound: COC(=O)C(CSC12C(=O)c3c(O)cccc3C(=O)C1(O)C1(O)C(=O)C=C(C)CC1(O)CC2OC(C)=O)NC(C)=O (centres unmarked) [FR129796]

IC50 [1]: 10.3 µM
Compound: COC(=O)C(CSC12C(=O)c3c(OC(C)=O)cccc3C(=O)C1(O)C1(O)C(=O)C=C(C)CC1(O)CC2OC(C)=O)NC(C)=O (centres unmarked) [FR129797]

Solubility ([2]; chloroform): insoluble
Solubility ([2]; ethanol): sparingly soluble
Solubility ([2]; methanol): sparingly soluble
Solubility ([2]; n-hexane): insoluble
Solubility ([2]; water): sparingly soluble
IC50 [1]: 147 µM
Compound: CC1=CC(=O)C2(O)C(O)(CCC3(SCC(N)C(=O)O)C(=O)c4c(O)cccc4C(=O)C32O)C1 (centres unmarked) [FR131132]

IC50 [1]: 22 µM
Compound: CC1=CC(=O)C2(O)C(O)(CCC3(SCC(NC(=O)c4ccccc4)C(=O)O)C(=O)c4c(O)cccc4C(=O)C32O)C1 (centres unmarked) [FR131661]

IC50 [1]: 4.33 µM
Compound: CC1=CC(=O)C2(O)C(O)(CCC3(SCC(NC(=O)OC(C)(C)C)C(=O)O)C(=O)c4c(O)cccc4C(=O)C32O)C1 (centres unmarked) [FR131662]

IC50 [1]: 38.7 µM
Compound: CC1=CC(=O)C2(O)C(O)(CCC3(SCC(NC(=O)Cc4ccc(Cl)cc4)C(=O)O)C(=O)c4c(O)cccc4C(=O)C32O)C1 (centres unmarked) [FR131663]

IC50 [1]: 106 µM
Compound: CC1=CC(=O)C2(O)C(O)(CCC3(SCC(NC(=O)C(C)C)C(=O)O)C(=O)c4c(O)cccc4C(=O)C32O)C1 (centres unmarked) [FR131667]

IC50 [1]: 17 µM
Compound: CCCCCC(=O)NC(CSC12CCC3(O)CC(C)=CC(=O)C3(O)C1(O)C(=O)c1cccc(O)c1C2=O)C(=O)O (centres unmarked) [FR131668]

IC50 [1]: 10.5 µM
Compound: COC(=O)C(CSC12CCC3(O)CC(C)=CC(=O)C3(O)C1(O)C(=O)c1cccc(O)c1C2=O)NC(C)=O (centres unmarked) [FR134624]

IC50 [1]: 356 µM
Compound: COC(=O)C(CSC12CCC3(OC(C)=O)CC(C)=CC(=O)C3(OC(C)=O)C1(OC(C)=O)C(=O)c1cccc(OC(C)=O)c1C2=O)NC(C)=O (centres unmarked) [FR134625]

IC50 [1]: 10.3 µM
Compound: CC(=O)NC(CSC12CCC3(O)CC(C)=CC(=O)C3(O)C1(O)C(=O)c1cccc(O)c1C2=O)C(=O)NCCO (centres unmarked) [FR134761]

IC50 [1]: 11.9 µM
Compound: COC(=O)[C@H](Cc1c[nH]c2ccccc12)NC(=O)C(CSC12CCC3(O)CC(C)=CC(=O)C3(O)C1(O)C(=O)c1cccc(O)c1C2=O)NC(C)=O (some centres unmarked) [FR134762]

IC50 [1]: 37.2 µM
Compound: CC[C@H](C)[C@H](NC(=O)C(CSC12CCC3(O)CC(C)=CC(=O)C3(O)C1(O)C(=O)c1cccc(O)c1C2=O)NC(C)=O)C(=O)N[C@@H](Cc1c[nH]c2ccccc12)C(=O)OC (some centres unmarked) [FR134763]

IC50 [1]: 12 µM
Compound: CC[C@H](C)[C@H](NC(=O)C(CSC12CCC3(O)CC(C)=CC(=O)C3(O)C1(O)C(=O)c1cccc(O)c1C2=O)NC(C)=O)C(=O)N[C@@H](Cc1c[nH]c2ccccc12)C(=O)O (some centres unmarked) [FR134764]

Solubility ([2]; chloroform): insoluble
Solubility ([2]; ethanol): soluble
Solubility ([2]; methanol): soluble
Solubility ([2]; n-hexane): insoluble
Solubility ([2]; water): sparingly soluble
IC50 [1]: 20.7 µM
Compound: CC1=CC(=O)C2(O)C(O)(C1)CC(O)C1(SCC(N)C(=O)O)C(=O)c3c(O)cccc3C(=O)C12O (centres unmarked) [FR134851]

Solubility ([2]; acetone): soluble
Solubility ([2]; chloroform): sparingly soluble
Solubility ([2]; hexane): insoluble
Solubility ([2]; methanol): soluble
Solubility ([2]; water): insoluble
IC50 [1]: 5.97 µM
Compound: CC(=O)NC(CSC12CCC3(O)CC(C)=CC(=O)C3(O)C1(O)C(=O)c1cccc(O)c1C2=O)C(=O)O (centres unmarked) [FR901366]
inhibition at 100 µM [3]: 39%
inhibition at 10 µM [3]: 15%
Inhibition of endothelin pressor response ([4]; 5 min after administration): 27.2%
Inhibition of endothelin pressor response ([4]; 10 min after administration): 50.0%
Inhibition of endothelin pressor response ([4]; 20 min after administration): 63.3%
Inhibition of endothelin pressor response ([4]; 30 min after administration): 53.8%
Inhibition of endothelin pressor response ([4]; 60 min after administration): 66.6%
Inhibition of endothelin pressor response ([4]; 120 min after administration): 50.0%

Solubility ([2]; acetone): sparingly soluble
Solubility ([2]; ethanol): soluble
Solubility ([2]; ethyl acetate): sparingly soluble
Solubility ([2]; methanol): soluble
Solubility ([2]; n-hexane): insoluble
Solubility ([2]; water): sparingly soluble
IC50 [1]: 0.672 µM
Compound: CC(=O)NC(CSC12C(=O)c3c(O)cccc3C(=O)C1(O)C1(O)C(=O)C=C(C)CC1(O)CC2O)C(=O)O (centres unmarked) [FR901367]
inhibition at 100 µM [3]: 75%
inhibition at 10 µM [3]: 38.6%
competition with ^125 I-endothelin for binding to porcine aorta membrane fractions ([1]; result in words): competes with ^125 I-endothelin for binding
